Data taken from US8969516B2, “Method of hydrolysis of peptide bond” (priority 2006, dated 2015).

Assay: MALDI-TOF screening of Ni^2+ dependent hydrolysis in a combinatorial peptide library
Type: physicochemical
Conditions: CH3CO-Gly-Ala-Thr-X-His-Z-Lys-Phe-Leu-NH2 library, Ni^2+ 2 mM, pH 8.2, 10 mM Tris, score=24/tm
Outline: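 MALDI-TOF read-out: appearance of Ser/Thr-X-His-Z-Lys-Phe-Leu-NH2 product signals, plus loss of substrate signals, checked by eye at 2, 4, 6, 8 h. Conditions: 1 mM peptide mixture, 2 mM Ni2+, 10 mM Tris pH 8.2, 37 or 45 °C.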

Substance	hydrolysis score from MALDI-TOF screening (37° C.)	hydrolysis score from MALDI-TOF screening (45° C.)
Ac-GATQHKKFL-NH2 [TQHK]	0 (a score of 0 if no trace of the product of hydrolysis was seen after 8 hours of incubation)	3 (a score of 3 for detection at 8 hours)
Ac-GATQHLKFL-NH2 [TQHL]	0 (a score of 0 if no trace of the product of hydrolysis was seen after 8 hours of incubation)	3 (a score of 3 for detection at 8 hours)
Ac-GATQHMKFL-NH2 [TQHM]	0 (a score of 0 if no trace of the product of hydrolysis was seen after 8 hours of incubation)	0 (a score of 0 if no trace of the product of hydrolysis was seen after 8 hours of incubation)
Ac-GATQHNKFL-NH2 [TQHN]	0 (a score of 0 if no trace of the product of hydrolysis was seen after 8 hours of incubation)	0 (a score of 0 if no trace of the product of hydrolysis was seen after 8 hours of incubation)
Ac-GATQHPKFL-NH2 [TQHP]	0 (a score of 0 if no trace of the product of hydrolysis was seen after 8 hours of incubation)	0 (a score of 0 if no trace of the product of hydrolysis was seen after 8 hours of incubation)
Ac-GATQHQKFL-NH2 [TQHQ]	0 (a score of 0 if no trace of the product of hydrolysis was seen after 8 hours of incubation)	0 (a score of 0 if no trace of the product of hydrolysis was seen after 8 hours of incubation)
Ac-GATQHRKFL-NH2 [TQHR]	3 (a score of 3 for detection at 8 hours)	4 (a score of 4 for detection at 6 hours)
Ac-GATQHSKFL-NH2 [TQHS]	0 (a score of 0 if no trace of the product of hydrolysis was seen after 8 hours of incubation)	0 (a score of 0 if no trace of the product of hydrolysis was seen after 8 hours of incubation)
Ac-GATQHTKFL-NH2 [TQHT]	0 (a score of 0 if no trace of the product of hydrolysis was seen after 8 hours of incubation)	0 (a score of 0 if no trace of the product of hydrolysis was seen after 8 hours of incubation)
Ac-GATQHVKFL-NH2 [TQHV]	0 (a score of 0 if no trace of the product of hydrolysis was seen after 8 hours of incubation)	0 (a score of 0 if no trace of the product of hydrolysis was seen after 8 hours of incubation)
Ac-GATQHWKFL-NH2 [TQHW]	3 (a score of 3 for detection at 8 hours)	4 (a score of 4 for detection at 6 hours)
Ac-GATQHYKFL-NH2 [TQHY]	0 (a score of 0 if no trace of the product of hydrolysis was seen after 8 hours of incubation)	0 (a score of 0 if no trace of the product of hydrolysis was seen after 8 hours of incubation)
Ac-GATRHAKFL-NH2 [TRHA]	0 (a score of 0 if no trace of the product of hydrolysis was seen after 8 hours of incubation)	3 (a score of 3 for detection at 8 hours)
Ac-GATRHDKFL-NH2 [TRHD]	0 (a score of 0 if no trace of the product of hydrolysis was seen after 8 hours of incubation)	0 (a score of 0 if no trace of the product of hydrolysis was seen after 8 hours of incubation)
Ac-GATRHEKFL-NH2 [TRHE]	0 (a score of 0 if no trace of the product of hydrolysis was seen after 8 hours of incubation)	0 (a score of 0 if no trace of the product of hydrolysis was seen after 8 hours of incubation)
Ac-GATRHFKFL-NH2 [TRHF]	3 (a score of 3 for detection at 8 hours)	4 (a score of 4 for detection at 6 hours)
Ac-GATRHGKFL-NH2 [TRHG]	0 (a score of 0 if no trace of the product of hydrolysis was seen after 8 hours of incubation)	0 (a score of 0 if no trace of the product of hydrolysis was seen after 8 hours of incubation)
Ac-GATRHHKFL-NH2 [TRHH]	3 (a score of 3 for detection at 8 hours)	4 (a score of 4 for detection at 6 hours)
Ac-GATRHIKFL-NH2 [TRHI]	6 (a score of 6 for detection at 4 hours)	12 (a score of 12, if it was seen to be partially hydrolysed at 2 hours)
Ac-GATRHKKFL-NH2 [TRHK]	6 (a score of 6 for detection at 4 hours)	12 (a score of 12, if it was seen to be partially hydrolysed at 2 hours)

Substance	hydrolysis score from MALDI-TOF screening (37° C.)	hydrolysis score from MALDI-TOF screening (45° C.)
Ac-GATRHLKFL-NH2 [TRHL]	6 (a score of 6 for detection at 4 hours)	12 (a score of 12, if it was seen to be partially hydrolysed at 2 hours)
Ac-GATRHMKFL-NH2 [TRHM]	3 (a score of 3 for detection at 8 hours)	4 (a score of 4 for detection at 6 hours)
Ac-GATRHNKFL-NH2 [TRHN]	0 (a score of 0 if no trace of the product of hydrolysis was seen after 8 hours of incubation)	0 (a score of 0 if no trace of the product of hydrolysis was seen after 8 hours of incubation)
Ac-GATRHPKFL-NH2 [TRHP]	0 (a score of 0 if no trace of the product of hydrolysis was seen after 8 hours of incubation)	0 (a score of 0 if no trace of the product of hydrolysis was seen after 8 hours of incubation)
Ac-GATRHQKFL-NH2 [TRHQ]	0 (a score of 0 if no trace of the product of hydrolysis was seen after 8 hours of incubation)	0 (a score of 0 if no trace of the product of hydrolysis was seen after 8 hours of incubation)
Ac-GATRHRKFL-NH2 [TRHR]	4 (a score of 4 for detection at 6 hours)	6 (a score of 6 for detection at 4 hours)
Ac-GATRHSKFL-NH2 [TRHS]	0 (a score of 0 if no trace of the product of hydrolysis was seen after 8 hours of incubation)	0 (a score of 0 if no trace of the product of hydrolysis was seen after 8 hours of incubation)
Ac-GATRHTKFL-NH2 [TRHT]	0 (a score of 0 if no trace of the product of hydrolysis was seen after 8 hours of incubation)	0 (a score of 0 if no trace of the product of hydrolysis was seen after 8 hours of incubation)
Ac-GATRHVKFL-NH2 [TRHV]	3 (a score of 3 for detection at 8 hours)	4 (a score of 4 for detection at 6 hours)
Ac-GATRHWKFL-NH2 [TRHW]	12 (a score of 12, if it was seen to be partially hydrolysed at 2 hours)	12 (a score of 12, if it was seen to be partially hydrolysed at 2 hours)
Ac-GATRHYKFL-NH2 [TRHY]	4 (a score of 4 for detection at 6 hours)	6 (a score of 6 for detection at 4 hours)
Ac-GATSHAKFL-NH2 [TSHA]	0 (a score of 0 if no trace of the product of hydrolysis was seen after 8 hours of incubation)	0 (a score of 0 if no trace of the product of hydrolysis was seen after 8 hours of incubation)
Ac-GATSHDKFL-NH2 [TSHD]	0 (a score of 0 if no trace of the product of hydrolysis was seen after 8 hours of incubation)	0 (a score of 0 if no trace of the product of hydrolysis was seen after 8 hours of incubation)
Ac-GATSHEKFL-NH2 [TSHE]	0 (a score of 0 if no trace of the product of hydrolysis was seen after 8 hours of incubation)	0 (a score of 0 if no trace of the product of hydrolysis was seen after 8 hours of incubation)
Ac-GATSHFKFL-NH2 [TSHF]	0 (a score of 0 if no trace of the product of hydrolysis was seen after 8 hours of incubation)	0 (a score of 0 if no trace of the product of hydrolysis was seen after 8 hours of incubation)
Ac-GATSHGKFL-NH2 [TSHG]	0 (a score of 0 if no trace of the product of hydrolysis was seen after 8 hours of incubation)	0 (a score of 0 if no trace of the product of hydrolysis was seen after 8 hours of incubation)
Ac-GATSHHKFL-NH2 [TSHH]	0 (a score of 0 if no trace of the product of hydrolysis was seen after 8 hours of incubation)	0 (a score of 0 if no trace of the product of hydrolysis was seen after 8 hours of incubation)
Ac-GATSHIKFL-NH2 [TSHI]	0 (a score of 0 if no trace of the product of hydrolysis was seen after 8 hours of incubation)	0 (a score of 0 if no trace of the product of hydrolysis was seen after 8 hours of incubation)
Ac-GATSHKKFL-NH2 [TSHK]	0 (a score of 0 if no trace of the product of hydrolysis was seen after 8 hours of incubation)	0 (a score of 0 if no trace of the product of hydrolysis was seen after 8 hours of incubation)
Ac-GATSHLKFL-NH2 [TSHL]	0 (a score of 0 if no trace of the product of hydrolysis was seen after 8 hours of incubation)	0 (a score of 0 if no trace of the product of hydrolysis was seen after 8 hours of incubation)
